Test: method code SF-AS, from DOI: 10.1016/s0008-6215(00)84247-0, PMID: 18283
Conditions: pH 7.5

`OC[C@H]1O[C@@H](Sc2ccccc2)[C@H](O)[C@@H](O)[C@H]1O` and `OC[C@H]1O[C@@H](SCc2ccccc2)[C@H](O)[C@@H](O)[C@H]1O` are within 0.2 log units of each other in logD: -0.56 for the first, -0.47 for the second.

Compared with `OCC1OC(SCCCc2ccccc2)C(O)C(O)C1O` (stereo unspecified), `OC[C@H]1O[C@@H](SCCc2ccccc2)[C@H](O)[C@@H](O)C1O` (stereo in doubt) is lower in logD: 0.38 for the first, -0.1 for the second.

Test: method code SF-CR, from DOI: 10.1016/s0008-6215(00)84247-0, PMID: 18283
Conditions: pH 7.5

Going from `CCCCCCCCS[C@@H]1O[C@H](CO)[C@H](O)[C@H](O)[C@H]1O` to `CCCCCCCS[C@@H]1O[C@H](CO)[C@H](O)[C@H](O)[C@H]1O`, the logD falls from 2.13 to 1.5.

First: CCS[C@@H]1O[C@H](CO)[C@H](O)[C@H](O)[C@H]1O
Second: CCCS[C@@H]1O[C@H](CO)[C@H](O)[C@H](O)[C@H]1O
The logD of the first is lower: -1.51 for the first, -1.18 for the second.

First: CCOC1O[C@H](CO)[C@H](O)[C@H](O)[C@H]1O (stereo in doubt)
Second: CCCO[C@@H]1O[C@H](CO)[C@H](O)[C@H](O)[C@H]1O
The logD of the first is lower: -2.28 for the first, -1.66 for the second.

Going from `CCCCCCCCO[C@@H]1O[C@H](CO)[C@H](O)[C@H](O)[C@H]1O` to `CCCCCCCO[C@@H]1O[C@H](CO)[C@H](O)[C@H](O)[C@H]1O`, the logD falls from 1.46 to 0.73.

Compared with `CCCCCCS[C@@H]1O[C@H](CO)[C@H](O)[C@H](O)[C@H]1O`, `CCCCCS[C@@H]1O[C@H](CO)[C@H](O)[C@H](O)[C@H]1O` is lower in logD: 0.86 for the first, 0.39 for the second.

Compared with `CCCCS[C@@H]1O[C@H](CO)[C@H](O)[C@H](O)[C@H]1O`, `CCCCO[C@@H]1O[C@H](CO)[C@H](O)[C@H](O)[C@H]1O` is lower in logD: -0.54 for the first, -1.04 for the second.

First: CCCCCO[C@@H]1O[C@H](CO)[C@H](O)[C@H](O)[C@H]1O
Second: CCCCCCO[C@@H]1O[C@H](CO)[C@H](O)[C@H](O)[C@H]1O
The logD of the first is lower: -0.42 for the first, 0.16 for the second.

First: CCCCCOC1C(O)C(O)OC(CO)C1O (stereo unspecified)
Second: CCCCCOC1C(O)C(S)OC(CO)C1O (stereo unspecified)
The logD of the first is lower: -0.8 for the first, -0.18 for the second.

Compound `CC(C)S[C@@H]1O[C@H](CO)[C@H](O)[C@H](O)[C@H]1O` has a logD of -1.26.

— the SangsterLogP compilation
